Laboratory results: ChEMBL document CHEMBL1799932, “Antimalarial pyrido[1,2-a]benzimidazoles” (J Med Chem, 2011)

Columns and labels:
[1] = system: Plasmodium berghei; experiment: Antimalarial activity against GFP-transfected Plasmodium berghei strain ANKA infected in NMRI mouse assessed as reduction in parasitemia at 50 mg/kg/day, ip administered for 4 consecutive days measured 24 hrs after last treatment by FACS analysis relative to control; assay type: functional; parameters: scale not given: the % may be the effect or the level left; details: route intraperitoneal
[2] = system: Plasmodium falciparum
Description: (§1) Antimalarial activity against multidrug-resistant Plasmodium falciparum K1 infected in human red blood cells assessed as 3H-hypoxanthine incorporation after 48 hrs by liquid scintillation counting

[3] = system: L6; experiment: Cytotoxicity at rat L6 cells after 72 hrs by microplate alamar blue assay; assay type: cell-based
[4] = system: Plasmodium berghei; experiment: Antimalarial activity against GFP-transfected Plasmodium berghei strain ANKA infected in NMRI mouse assessed as increase in median survival time at 100 mg/kg/day, po administered for 4 days measured up to 30 days post infection (reference value: 5 to 7 days); assay type: functional
[5] = system: Plasmodium berghei; experiment: Antimalarial activity against GFP-transfected Plasmodium berghei strain ANKA infected in NMRI mouse assessed as increase in median survival time at 50 mg/kg/day, ip administered for 4 days measured up to 30 days post infection (reference value: 5 to 7 days); assay type: functional; details: route intraperitoneal
[6] = system: Plasmodium berghei; experiment: Antimalarial activity against GFP-transfected Plasmodium berghei strain ANKA infected in NMRI mouse assessed as reduction in parasitemia at 100 mg/kg/day, po administered for 4 consecutive days measured 24 hrs after last treatment by FACS analysis relative to control; assay type: functional; parameters: scale not given: the % may be the effect or the level left
[7] = system: Plasmodium falciparum; experiment: microbe, parasite or virus in culture; details: HB3
Description: Antimalarial activity against Plasmodium falciparum HB3

[8] = system: Plasmodium falciparum; experiment: microbe, parasite or virus in culture; details: K1
Description: as §1

[9] = system: Plasmodium falciparum; experiment: microbe, parasite or virus in culture; details: Mad20/Papua New Guinea
Description: Antimalarial activity against Plasmodium falciparum Mad20

[10] = system: Plasmodium falciparum; experiment: microbe, parasite or virus in culture; details: FCR-3/Gambia
Description: Antimalarial activity against Plasmodium falciparum FCR3

[11] = system: Plasmodium falciparum; experiment: microbe, parasite or virus in culture; details: NF54
Description: Antimalarial activity against Plasmodium falciparum NF54

[12] = system: Plasmodium falciparum; experiment: microbe, parasite or virus in culture; details: K1; remark: listed apart in the source
Description: Antimalarial activity against Plasmodium falciparum K1

[13] = Metabolic stability in rat liver microsomes assessed as degradation half life after 60 mins by LC-MS analysis; assay type: ADME, Microsome
[14] = Metabolic stability in human liver microsomes assessed as intrinsic clearance per mg protein after 60 mins by LC-MS analysis; assay type: ADME, Microsome
[15] = Metabolic stability in rat liver microsomes assessed as intrinsic clearance per mg protein after 60 mins by LC-MS analysis; assay type: ADME, Microsome
[16] = Metabolic stability in mouse liver microsomes assessed as intrinsic clearance per mg protein after 60 mins by LC-MS analysis; assay type: ADME, Microsome
[17] = Metabolic stability in human liver microsomes assessed as degradation half life after 60 mins by LC-MS analysis; assay type: ADME, Microsome
[18] = Metabolic stability in mouse liver microsomes assessed as degradation half life after 60 mins by LC-MS analysis; assay type: ADME, Microsome
[19] = Distribution coefficient, log D of the compound at pH 7.4; assay type: physicochemical; details: octanol/water
[20] = Selectivity index, ratio IC50 for rat L6 cells to IC50 for multidrug-resistant Plasmodium falciparum K1 infected in human red blood cells; assay type: functional
[21] = system: Plasmodium falciparum; experiment: microbe, parasite or virus in culture; details: FC27/Papua New Guinea
Description: Antimalarial activity against Plasmodium falciparum FC27

SMILES | IC50 [8] | logD [19] | IC50 ([3]; Rattus norvegicus, L6, 72 h) | Ratio IC50 [20] | also measured
CCN(CC)CCCNc1cc(-c2ccc(C(F)(F)F)cc2)c(C#N)c2nc3ccccc3n12.Cl |  |  |  |  | Activity [1]: 72.6%; IC50 [2]: 160 nM; IC50 ([3]; l6): 2230 nM; MSD [4]: 11 days; MSD [5]: 9 days; Activity [6]: 93.4%
C[C@@H]1CC[C@H]2[C@@H](C)C(=O)O[C@@H]3O[C@@]4(C)CC[C@@H]1[C@]32OO4 [ARTEMISININ] | 6 nM |  |  |  | IC50 [7]: 3 nM; IC50 [9]: 8 nM; IC50 [10]: 5 nM
CN(C)CCNc1cc(-c2ccc(C(F)(F)F)cc2)c(C#N)c2nc3ccccc3n12.Cl |  |  |  |  | Activity [1]: 0%; IC50 [2]: 100 nM; IC50 ([3]; l6): 147000 nM
Cc1cc(N2CCN(Cc3ccccc3)CC2)n2c(nc3ccccc32)c1C#N |  |  |  |  | IC50 [11]: 52 nM; IC50 [12]: 50 nM
CN(C)CCCNc1cc(-c2ccc(C(F)(F)F)cc2)c(C#N)c2nc3ccccc3n12.Cl.Cl |  |  |  |  | Activity [1]: 30.7%; IC50 [2]: 260 nM; IC50 ([3]; l6): 21100 nM
CCN(CC)CCNc1cc(-c2ccc(C(F)(F)F)cc2)c(C#N)c2nc3ccccc3n12.CS(=O)(=O)O |  |  |  |  | Activity [1]: 95.2%; IC50 [2]: 90 nM; IC50 ([3]; l6): 124000 nM; MSD [4]: 11 days; MSD [5]: 11 days; Activity [6]: 97.4%
Cl.N#Cc1c(-c2ccc(C(F)(F)F)cc2)cc(NCCCN2CCOCC2)n2c1nc1ccccc12 |  |  |  |  | half-life [13]: 7.4 min; microsomal CLint [14]: 166 µL/min/mg; microsomal CLint [15]: 234 µL/min/mg; microsomal CLint [16]: 87 µL/min/mg; half-life [17]: 10.4 min; half-life [18]: 19.9 min
CCN(CC)CCCNc1cc(-c2cccc(C(F)(F)F)c2)c(C#N)c2nc3ccccc3n12.Cl.Cl |  |  |  |  | Activity [1]: 0%; IC50 [2]: 250 nM; IC50 ([3]; l6): 11800 nM
CN(C)CCNc1cc(-c2ccccc2)c(C#N)c2nc3ccccc3n12 | 1490 nM | 1.48 | > 80000 nM | >50 | 
CN(C)CCCNc1cc(-c2ccccc2)c(C#N)c2nc3ccccc3n12 | 1520 nM | 1.52 | 108000 nM | 71 | 
CCN(CC)CCCNc1cc(-c2cccc(C(F)(F)F)c2)c(C#N)c2nc3ccccc3n12 | 190 nM | 2.97 |  | 128 | IC50 ([3]; l6): 24300 nM
CCN(CC)CCCNc1cc(-c2ccc(F)cc2)c(C#N)c2nc3ccccc3n12 | 710 nM | 1.93 | 86600 nM | 122 | 
CN(C)CCCNc1cc(-c2ccc(Cl)cc2)c(C#N)c2nc3ccccc3n12 | 210 nM | 2.09 | > 210000 nM | >1000 | 
N#Cc1c(-c2cccc(C(F)(F)F)c2)cc(NCCN)n2c1nc1ccccc12 | 1000 nM | 1.8 | 11700 nM | 11.7 | 
CN(C)CCNc1cc(-c2ccc(C(F)(F)F)cc2)c(C#N)c2nc3ccccc3n12 | 130 nM | 2.45 | > 210000 nM | >1600 | 
CN(C)CCNc1cc(-c2ccc(Cl)cc2)c(C#N)c2nc3ccccc3n12 | 310 nM | 2.05 | 19500 nM | 62.9 | 
N#Cc1c(-c2ccc(C(F)(F)F)cc2)cc(NCCN2CCOCC2)n2c1nc1ccccc12 | 490 nM | 3.72 | 33300 nM | 68 | 

SMILES | IC50 [8] | logD [19] | IC50 ([3]; Rattus norvegicus, L6, 72 h) | Ratio IC50 [20] | also measured
CN(C)CCNc1cc(C(F)(F)F)c(C#N)c2nc3ccccc3n12 | 3430 nM | 2.01 | 44700 nM | 13 | 
Cl.N#Cc1c(-c2ccc(C(F)(F)F)cc2)cc(NCCN2CCOCC2)n2c1nc1ccccc12 |  |  |  |  | half-life [13]: 16 min; microsomal CLint [14]: 109 µL/min/mg; microsomal CLint [15]: 108 µL/min/mg; microsomal CLint [16]: 65.2 µL/min/mg; half-life [17]: 15.9 min; half-life [18]: 26.6 min
CN(C)CCNc1cc(-c2ccc(C(F)(F)F)cc2)c(C#N)c2nc3ccccc3n12.CS(=O)(=O)O |  |  |  |  | Activity [1]: 94.1%; IC50 [2]: 140 nM; IC50 ([3]; l6): > 175000 nM; MSD [4]: 13.7 days; MSD [5]: 11 days; Activity [6]: 96.8%
N#Cc1c(-c2ccccc2)cc(NCCCN)n2c1nc1ccccc12 | 2270 nM | 0.49 | 11900 nM | 5.2 | 
CN(C)CCNc1cc(-c2cccc(F)c2)c(C#N)c2nc3ccccc3n12 | 840 nM | 1.5 | 5880 nM | 7 | 
CCCc1cc(N2CCN(Cc3ccc(F)cc3)CC2)n2c(nc3ccccc32)c1C#N |  |  |  |  | IC50 [11]: 53 nM; IC50 [12]: 23 nM
CCN(CC)CCCNc1cc(-c2ccc(C(F)(F)F)cc2)c(C#N)c2nc3ccccc3n12 | 300 nM | 2.97 |  | >633 | IC50 ([3]; l6): > 190000 nM
CCN(CC)CCCNc1cc(C(F)(F)F)c(C#N)c2nc3ccccc3n12 | 2080 nM | 2.54 | 87800 nM | 42.2 | 
OC(c1cc(C(F)(F)F)nc2c(C(F)(F)F)cccc12)C1CCCCN1 (configuration not stated) [MEFLOQUINE] |  |  |  |  | IC50 [9]: 13 nM; IC50 [11]: 13 nM; IC50 [21]: < 40 nM
CCN(CC)CCNc1cc(-c2ccc(F)cc2)c(C#N)c2nc3ccccc3n12 | 250 nM | 1.9 | 56500 nM | 226 | 
N#Cc1c(-c2ccc(C(F)(F)F)cc2)cc(NCCN)n2c1nc1ccccc12 | 1490 nM | 1.8 | 5110 nM | 3.4 | 
N#Cc1c(-c2ccc(C(F)(F)F)cc2)cc(NCCCN2CCOCC2)n2c1nc1ccccc12 | 1220 nM | 3.79 | 98300 nM | 80.6 | 
N#Cc1c(C(F)(F)F)cc(NCCN)n2c1nc1ccccc12 | 3090 nM | 1.37 | 40100 nM | 13 | 
CN(C)CCCNc1cc(-c2cccc(C(F)(F)F)c2)c(C#N)c2nc3ccccc3n12.Cl.Cl |  |  |  |  | Activity [1]: 0%; IC50 [2]: 490 nM; IC50 ([3]; l6): 19200 nM
N#Cc1c(-c2ccc(C(F)(F)F)cc2)cc(NCCN2CCCCC2)n2c1nc1ccccc12 | 54 nM | 3.78 | 193000 nM | 3581 | 
CN(C)CCCNc1cc(-c2cccc(F)c2)c(C#N)c2nc3ccccc3n12 | 530 nM | 1.54 | 15400 nM | 29 | 
CCN(CC)CCCNc1cc(-c2cccc(F)c2)c(C#N)c2nc3ccccc3n12 | 460 nM | 2.02 | 55700 nM | 121 | 
